US8691187B2, “Imaging agents for detecting neurological disorders” (Eli Lilly and Company, priority 2009, dated 2014)

What was measured:
[1] = tested on: tau aggregates; assay: Fluorescent compound staining on human AD brain sections (tau IHC double labeling); type: binding; conditions: Table 2 acetylenes; 100 uM compound; qualitative rating + to ++++ or words
Description: (§1) Native forms of tau (various isoforms, hyperphosphorylated) and amyloid aggregates are present in brain sections and therefore preferred for compound testing. Using the self-fluorescence of a test compound can give an indication of whether the compound binds to tau tangles/PHFs and/or amyloid plaques. This is further confirmed by immunostaining with Aβ and tau antibodies and overlaying the images. […] However, it is possible to “rate” the signal strength qualitatively and distinguish compounds that show binding to these aggregates.
(§2) In one of the embodiments of the present invention, the self-fluorescence of the compound of formula (I) is used to determine whether the compound binds to tau/amyloid in the brain sections and to give it a qualitative rating. The next step is to proceed to the autoradiography using different brain types for further evaluation and quantitation.
(§3) Tau fluorescent compounds staining on human brain sections (Double or triple labeled with tau and β-amyloid Immunohistochemistry (IHC))
(§4) Serial sections (6 μm thick) from OCT-embedded frozen blocks of front lobe were used for staining (OCT—optimal cutting temperature). After fixation and quenching of autofluorescence, tissue sections were incubated with in 100 μM of tau compound in 50% ethanol PBS for 60 min. Then sections were dipped briefly into water, rinsed in PBS, blocked with 5% normal horse serum in PBS for 1 hour at room temperature. After blocking, the tissue was incubated with tau or β-amyloid primary antibody at 4° C. overnight in a humid chamber. Next day, the sections were washed with PBS and then incubated with secondary antibody for 1 hour.

[2] = tested on: AD brain sections; assay: Fluorescent compound staining on human AD brain sections (self-fluorescence, overall binding); conditions: figure legends; double labeling at 100 uM
Description: as §1, §2, §3, §4

[3] = target: synthetic tau (Homo sapiens, UniProt P10636); assay: Synthetic tau Kd (F-18 labeled and cold compound, filtration); type: binding
Chain of synthetic tau (P10636 whole entry): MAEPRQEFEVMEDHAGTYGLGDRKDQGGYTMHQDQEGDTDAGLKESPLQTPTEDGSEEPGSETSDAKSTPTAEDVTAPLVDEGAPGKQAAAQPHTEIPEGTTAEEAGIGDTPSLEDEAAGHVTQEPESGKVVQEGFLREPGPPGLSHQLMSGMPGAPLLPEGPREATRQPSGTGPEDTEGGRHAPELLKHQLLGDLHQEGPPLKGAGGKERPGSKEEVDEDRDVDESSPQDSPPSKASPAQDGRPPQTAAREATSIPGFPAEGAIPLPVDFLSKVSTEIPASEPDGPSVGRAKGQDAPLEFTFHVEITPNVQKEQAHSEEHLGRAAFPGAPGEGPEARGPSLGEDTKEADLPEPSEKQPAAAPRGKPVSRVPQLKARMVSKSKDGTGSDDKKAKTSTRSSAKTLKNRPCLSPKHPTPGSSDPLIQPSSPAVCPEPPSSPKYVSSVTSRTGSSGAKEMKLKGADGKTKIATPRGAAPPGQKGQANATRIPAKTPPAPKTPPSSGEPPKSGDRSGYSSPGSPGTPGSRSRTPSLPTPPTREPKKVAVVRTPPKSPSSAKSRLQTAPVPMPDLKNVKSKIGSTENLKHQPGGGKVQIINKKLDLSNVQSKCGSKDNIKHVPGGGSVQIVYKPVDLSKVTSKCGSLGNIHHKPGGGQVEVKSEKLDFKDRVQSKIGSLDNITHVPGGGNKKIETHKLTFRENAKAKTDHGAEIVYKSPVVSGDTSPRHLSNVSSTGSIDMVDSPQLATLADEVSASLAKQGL
Method: (§5) Pick one brain section for each type and air-dry in hood. A solution of diluted F-18 labeled tracer (40 μCi/mL, 500 μL) which was obtained from the dilution of F-18 tracer with 1×PBS containing 2.5% EtOH and 2.5% DMSO was applied onto each slides to cover the whole tissue section. The resulting slides were incubated at room temperature for 90 minutes, drained, and placed onto a slide holder. The slides were then washed sequentially with 1×PBS for 1 min; 70% EtOH in 1×PBS for 2 min; 30% EtOH in 1×PBS for 2 min; and 1×PBS for 1 min. The slides were dried in the hood for 30 min, and then placed on Fuji imaging plates and exposed overnight. The imaging plates were then scanned and the signal was measured using Fuji software to produce an autoradiography image of the brain section. (PBS—Phosphate Buffer Saline) Protocol for Synthetic Beta-amyloid and Tau Kds
Various concentrations solution of F-18 labeled and its parent cold compound in 1×PBS containing 5% Ethanol and 5% DMSO (pH 7.4) were incubated with synthetic beta-Amyloid or synthetic tau at room temperature in glass tubes for 90 min. The reaction mixture in each tube was filtered under vacuum through a microfiber filter. Each tube was washed with a solution of 20% EtOH in PBS. The PBS wash solution was filtered under vacuum through the filters. Each filter was then washed with a solution of 20% EtOH in PBS and then placed into a gamma counter vial for CPM counting. The data obtained was plotted for Kd determination.

[4] = tested on: tau/Ab; assay: selectivity (tau/Ab); type: binding
[5] = tested on: human AD brain slices; assay: Human AD brain section autoradiography with F-18 tracer; type: binding; conditions: for GM Intensity (comp. with W372): compared with W372; for Tx/tau/amyloid correlation: tracer signal vs tau and amyloid load
Description: Furthermore, the selectivity can be evaluated in brains containing only Aβ plaques/no tau aggregates, Aβ plaques/and tau aggregates, and control brains. Unfortunately, there are no AD brains with only tau and no Aβ present. By testing radiolabeled tracers in these brain sections, one can more quantitative evaluate the relative binding strength (signal strength) and selectivity of various test compounds as they all contain the same radioactive tracer. For examples, if a test tracer binds only to tau, and not amyloid, it should show no signal in the Aβ plaques only brain sections. If a compound binds only to amyloid, it should show uptake in both types of brains. The difficulty of identifying and further quantifying selective compounds lies in the relative abundance of amyloid vs. tau, which is difficult to measure.
Human AD Brain Section Autoradiography
5 micron thick human AD brain slices were first examined using antibodies for Aβ and Tau to determine whether the tested human brain contains Aβ and Tau. Thus, three types of human brain slices were selected for autoradiography: Aβ+/Tau+; Aβ+/Tau−; and Aβ−/Tau−(control).
The experimental protocol is as follows:
as §5

[6] = Mouse and rat brain microPET imaging (brain uptake); type: in vivo; conditions: rats and mice
Method: Mouse and Rat Brain microPET Imaging
Wild type mice and rats were injected intravenously with the candidate tracers. Mice (weight range 25-45 g) were injected with doses between 180 and 300 μCi in 200 uL of saline solution. Rats (weight range 300-400 g) were injected with doses between 300 and 500 μCi of tracer in 400 μL of saline solution. Anesthesia was induced and maintained with Isoflurane. CT and PET scans were performed with a MM INVEON scanner (SIEMENS™). Acquisition for CT images preceded PET scanning and lasted 5 minutes. Only several minutes after the beginning of the PET acquisition, the radioactive dose was injected into the animal through the tail vein. Images were generated as dynamic scans that typically lasted 30 minutes. The initial image analysis consisted of determining whether there was uptake of the tracer in the brain which would establish its ability to cross the blood-brain barrier. All measurements were performed at the time point of 5 minutes following the injection of the tracer. The degree of uptake in the brain was estimated relative to the uptake of the traces in the region of neck muscles. The ratio between the percentage of injected dose per gram in the brain and that of the muscular neck region was provided as an estimate of brain uptake.

[7] = tested on: human hepatocytes; assay: Stability in human hepatocytes; type: in vitro ADME
[8] = target: AchE (Homo sapiens, UniProt P22303); assay: AchE activity; type: biochemical
Chain of AchE (P22303 32-614): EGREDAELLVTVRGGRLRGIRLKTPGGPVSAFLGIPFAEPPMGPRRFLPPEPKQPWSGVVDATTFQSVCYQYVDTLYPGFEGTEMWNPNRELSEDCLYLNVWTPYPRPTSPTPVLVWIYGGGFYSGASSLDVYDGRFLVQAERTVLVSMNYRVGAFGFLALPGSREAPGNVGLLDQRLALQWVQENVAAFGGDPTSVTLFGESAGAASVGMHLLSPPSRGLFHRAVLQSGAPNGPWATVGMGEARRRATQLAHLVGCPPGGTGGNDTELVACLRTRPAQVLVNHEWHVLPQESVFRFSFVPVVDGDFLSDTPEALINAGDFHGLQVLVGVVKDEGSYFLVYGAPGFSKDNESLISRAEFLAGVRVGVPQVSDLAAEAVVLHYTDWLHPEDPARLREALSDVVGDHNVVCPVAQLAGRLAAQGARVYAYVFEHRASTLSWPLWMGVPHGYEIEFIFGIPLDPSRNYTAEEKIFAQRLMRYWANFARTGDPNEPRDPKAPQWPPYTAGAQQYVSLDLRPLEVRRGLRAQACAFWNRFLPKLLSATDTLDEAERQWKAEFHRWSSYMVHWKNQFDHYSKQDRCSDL

[9] = target: T1, MAO-A (Homo sapiens, UniProt P21397); assay: MAO inhibition, MAO-A; type: biochemical
T1 sequence (P21397 1-527): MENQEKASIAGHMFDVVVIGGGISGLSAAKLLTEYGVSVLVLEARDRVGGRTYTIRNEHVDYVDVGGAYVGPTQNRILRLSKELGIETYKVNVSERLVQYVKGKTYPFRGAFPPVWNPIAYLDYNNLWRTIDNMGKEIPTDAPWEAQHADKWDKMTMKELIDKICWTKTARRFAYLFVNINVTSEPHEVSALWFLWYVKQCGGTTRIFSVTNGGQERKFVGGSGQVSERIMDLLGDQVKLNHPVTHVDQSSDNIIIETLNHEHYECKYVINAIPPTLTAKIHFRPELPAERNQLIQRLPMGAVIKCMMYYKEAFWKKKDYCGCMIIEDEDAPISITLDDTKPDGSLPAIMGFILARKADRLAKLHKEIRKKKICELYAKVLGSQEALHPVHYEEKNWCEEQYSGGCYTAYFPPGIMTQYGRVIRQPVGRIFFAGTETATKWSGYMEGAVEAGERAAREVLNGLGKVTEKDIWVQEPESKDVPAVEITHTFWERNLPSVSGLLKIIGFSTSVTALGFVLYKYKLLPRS

[10] = target: T2, MAO-B (Homo sapiens, UniProt P27338); assay: MAO inhibition, MAO-B; type: biochemical
T2 sequence (P27338 1-520): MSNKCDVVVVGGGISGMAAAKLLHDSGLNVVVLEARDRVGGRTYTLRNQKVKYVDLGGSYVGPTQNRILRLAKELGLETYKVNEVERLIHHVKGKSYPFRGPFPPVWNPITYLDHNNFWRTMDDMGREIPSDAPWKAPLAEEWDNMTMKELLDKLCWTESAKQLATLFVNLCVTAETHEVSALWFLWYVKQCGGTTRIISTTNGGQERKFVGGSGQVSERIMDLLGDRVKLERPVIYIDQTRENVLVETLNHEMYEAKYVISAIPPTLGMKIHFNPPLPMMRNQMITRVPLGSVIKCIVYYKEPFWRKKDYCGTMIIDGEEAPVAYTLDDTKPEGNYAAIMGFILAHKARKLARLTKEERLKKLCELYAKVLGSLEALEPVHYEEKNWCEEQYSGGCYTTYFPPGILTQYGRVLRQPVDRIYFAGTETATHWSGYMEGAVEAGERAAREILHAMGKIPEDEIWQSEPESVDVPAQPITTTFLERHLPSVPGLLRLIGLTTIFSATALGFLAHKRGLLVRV

[11] = target: T3, Bombesin BB3 (Homo sapiens, UniProt P32247); assay: CNS selectivity panel, Bombesin BB3; type: binding; conditions: 10 uM (printed in T777 column)
T3 sequence (P32247 1-399): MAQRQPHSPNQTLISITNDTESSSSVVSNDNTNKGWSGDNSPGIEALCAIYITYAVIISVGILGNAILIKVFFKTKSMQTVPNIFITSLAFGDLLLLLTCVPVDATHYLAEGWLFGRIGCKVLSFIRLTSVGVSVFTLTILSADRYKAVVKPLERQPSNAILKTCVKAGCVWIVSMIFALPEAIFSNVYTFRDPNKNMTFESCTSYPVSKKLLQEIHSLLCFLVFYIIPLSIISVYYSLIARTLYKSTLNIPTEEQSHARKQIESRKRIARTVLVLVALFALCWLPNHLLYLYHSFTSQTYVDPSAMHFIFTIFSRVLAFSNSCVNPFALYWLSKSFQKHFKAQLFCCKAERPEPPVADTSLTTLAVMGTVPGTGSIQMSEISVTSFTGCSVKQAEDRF

[12] = tested on: Monoamine transp.; assay: CNS selectivity panel, monoamine transporter; type: binding
[13] = target: Norepinephrine transp. (Homo sapiens, UniProt P23975); assay: CNS selectivity panel, norepinephrine transporter; type: binding
Chain of Norepinephrine transp. (P23975 whole entry): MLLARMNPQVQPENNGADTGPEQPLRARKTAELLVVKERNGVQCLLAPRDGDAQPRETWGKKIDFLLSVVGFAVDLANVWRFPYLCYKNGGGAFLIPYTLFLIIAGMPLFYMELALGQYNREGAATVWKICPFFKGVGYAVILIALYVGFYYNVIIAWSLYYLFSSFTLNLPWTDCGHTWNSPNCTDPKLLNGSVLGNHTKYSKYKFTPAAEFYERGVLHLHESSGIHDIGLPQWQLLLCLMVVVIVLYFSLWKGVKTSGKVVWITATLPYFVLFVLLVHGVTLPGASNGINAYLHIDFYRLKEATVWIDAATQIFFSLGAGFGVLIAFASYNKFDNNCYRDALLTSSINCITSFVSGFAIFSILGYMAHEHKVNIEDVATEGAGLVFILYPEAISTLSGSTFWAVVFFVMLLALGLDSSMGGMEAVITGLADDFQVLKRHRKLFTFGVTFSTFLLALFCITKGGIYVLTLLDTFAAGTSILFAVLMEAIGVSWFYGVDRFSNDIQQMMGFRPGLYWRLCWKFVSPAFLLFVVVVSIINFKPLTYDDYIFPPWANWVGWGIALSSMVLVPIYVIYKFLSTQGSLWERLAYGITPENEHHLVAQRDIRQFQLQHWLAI

Structure (SMILES) | Brain Section Staining: tau [1] | binding of fluorescent compound to AD brain sections confirmed by immunostaining with tau or Aβ antibodies [2] | Kd ([3]; Scheme 5 table) | Kd ([3]; Scheme 6 table) | selectivity (tau/Ab) [4] | GM Intensity (comp. with W372) [5] | Tx/tau/amyloid correlation [5] | Brain uptake [6] | human hepatocytes (stability) [7] | IC50 [8] | inhibition at 1 µM [9] | inhibition at 1 µM [10] | CNS selectivity panel: Bombesin BB3 [11] | CNS selectivity panel: Monoamine transp. ([12]; 10 uM) | CNS selectivity panel: Norepinephrine transp. ([13]; 10 uM) | IC50 [12] | IC50 [13]
CN(C)c1ccc(C#Cc2nc3ccccc3n2CCF)cc1 [Compound T482, 4-((1-(2-Fluoroethyl)-1H-benzo[d]imidazol-2-yl)ethynyl)-N,N-dimethylaniline] | Mostly binds to Tau | total tau binding |  |  |  |  |  |  |  |  |  |  |  |  |  |  | 
COc1ccc2nc3cc(-c4ccc(F)nc4)ccn3c2c1 [Compound T663, 3-(6-Fluoropyridin-3-yl)-8-methoxybenzo[4,5]imidazo[1,2-a]pyridine] |  |  | 105 nM |  |  |  |  |  |  |  |  |  |  |  |  |  | 
FC1CCN(c2ccn3c(n2)nc2ccccc23)CC1 [Compound T777, 2-(4-fluoropiperidin-1-yl)benzo[4,5]imidazo[1,2-a]pyrimidine] |  |  |  | 19 nM | 25× | 9% | yes | yes (4 rats, 4 mice) | not stable (polar metabolites) | 3000 nM | 9% | 0% | Bombesin BB3 (49%) | transp. (49%) | transp. (42%) |  | 
FCCC1CCN(c2ccn3c(n2)nc2ccccc23)CC1 [Compound T808, 2-(4-(2-fluoroethyl)piperidin-1-yl)benzo[4,5]imidazo[1,2-a]pyrimidine] |  |  |  | 22 nM | 27× | 18% | yes | yes (4 rats, 5 mice) | stable | 3000 nM | 22% | 29% | Bombesin BB3 (<20%) |  |  | 2700 nM | 820 nM
